Reference: patent publication US20220362273A1 (priority 2021, published 2022)

Tests used:
Conditions in all cases: mouse, in vivo
[1] = tested on: iNOS; set-up: species or system mice
[2] = tested on: NM-challenged skin; set-up: species or system mice
[3] = tested on: skin exposed to nitrogen mustard (NM); set-up: species or system C57Bl/6 mice
[4] = tested on: mice challenged with topical nitrogen mustard (NM)

Structure (SMILES)	iNOS levels (relative iNOS gene expression) [1]	inflammatory cells in skin [2]	skin thickness [2]	skin thickness by bi-fold caliper measurements [3]	lesion area at day 5 [4]	lesion size [4]	systemic toxicity [4]
C=C1CC[C@H](O)C/C1=C/C=C1\CCC[C@]2(C)[C@@H]([C@H](C)CCCC(C)(C)O)CC[C@@H]12 [25(OH)D, 25-hydroxyvitamin D3]	responded						
CC(=O)S[C@@H]1CC2=CC(=O)CC[C@]2(C)[C@H]2CC[C@@]3(C)[C@@H](CC[C@@]34CCC(=O)O4)[C@H]12 [spironolactone]		significant reduction	decrease in thickness	showed efficacy in reducing skin thickness	reduce lesion area	dose dependent reduction	sustained systemic toxicity
